Measured values: PubChem BioAssay (NCI)
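Interpolation was linear, between the two tested concentrations surrounding the appropriate level; five concentrations were tested over 48 hours in 96-well plates. TGI marks complete inhibition of growth.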

Tests used:
Assay in all cases: NCI anticancer screen, dose series, 48 h
[1] = tested on: OVCAR-8 ovarian
[2] = tested on: NCI-H522 lung
[3] = tested on: LOX IMVI melanoma
[4] = tested on: ACHN renal
[5] = tested on: HOP-18 NSCLC
[6] = tested on: OVCAR-4 ovarian
[7] = tested on: KM12 colon
[8] = tested on: UO-31 renal
[9] = tested on: 786-0 renal
[10] = tested on: CAKI-1 renal
[11] = tested on: DMS 273 small cell lung
[12] = tested on: DMS 114 small cell lung
[13] = tested on: COLO 205 colon
[14] = tested on: RXF 393 renal
[15] = tested on: HOP-92 NSCLC
[16] = tested on: HCT-116 colon
[17] = tested on: UACC-257 melanoma
[18] = tested on: K-562 leukemia
[19] = tested on: SF-295 CNS
[20] = tested on: MOLT-4 leukemia
[21] = tested on: UACC-62 melanoma
[22] = tested on: IGROV1 ovarian
[23] = tested on: SNB-19 CNS
[24] = tested on: M19-MEL melanoma
[25] = tested on: NCI-H226 lung
[26] = tested on: MALME-3M melanoma
[27] = tested on: A498 renal
[28] = tested on: HL-60(TB) leukemia
[29] = tested on: HT29 colon
[30] = tested on: SK-MEL-28 melanoma
[31] = tested on: SK-MEL-2 melanoma
[32] = tested on: HCT-15 colon
[33] = tested on: SNB-78 CNS
[34] = tested on: SN12C renal
[35] = tested on: SK-MEL-5 melanoma
[36] = tested on: DLD-1 colon
[37] = tested on: TK-10 renal
[38] = tested on: U251 CNS
[39] = tested on: SK-OV-3 ovarian
[40] = tested on: NCI-H460 lung
[41] = tested on: HCC-2998 colon
[42] = tested on: SF-539 CNS
[43] = tested on: NCI-H23 lung
[44] = tested on: SNB-75 CNS
[45] = tested on: OVCAR-3 ovarian
[46] = tested on: RXF-631 renal
[47] = tested on: CCRF-CEM leukemia
[48] = tested on: KM20L2 colon
[49] = tested on: LXFL 529 NSCLC
[50] = tested on: SW-620 colon
[51] = tested on: XF 498 CNS
[52] = tested on: RPMI-8226 leukemia
[53] = tested on: A549 NSCLC
[54] = tested on: HOP-62 NSCLC
[55] = tested on: SF-268 CNS
[56] = tested on: M14 melanoma
[57] = tested on: SR leukemia
[58] = tested on: OVCAR-5 ovarian
[59] = tested on: EKVX NSCLC

`Cc1ccc([Se][Se]c2ccc(C)cc2)cc1` gave a TGI [1] greater than 100 µM, a TGI [2] of 16.3 µM and a TGI [3] of 18.9 µM. The TGI [4] was greater than 100 µM, the TGI [5] was 33.5 µM and the TGI [6] was 36.9 µM. For the same compound, the TGI [7] was greater than 100 µM, the TGI [8] was 49.7 µM and the TGI [9] was 46.5 µM. The TGI [10] was greater than 100 µM, the TGI [11] was 32.4 µM and the TGI [12] was 57 µM. For the same compound, the TGI [13] was greater than 100 µM, the TGI [14] was greater than 100 µM and the TGI [15] was 22.3 µM. It also gave a TGI [16] greater than 100 µM, a TGI [17] of 68.8 µM and a TGI [18] of 28 µM. It also gave a TGI [19] of 61.6 µM, a TGI [20] greater than 100 µM and a TGI [21] of 31.7 µM. It also gave a TGI [22] greater than 100 µM, a TGI [23] greater than 100 µM and a TGI [24] of 40.6 µM. It also gave a TGI [25] greater than 100 µM, a TGI [26] greater than 100 µM and a TGI [27] greater than 100 µM. The TGI [28] was 19.2 µM, the TGI [29] was greater than 100 µM and the TGI [30] was 81.3 µM. It also gave a TGI [31] greater than 100 µM, a TGI [32] greater than 100 µM and a TGI [33] of 87.6 µM. It also gave a TGI [34] greater than 100 µM, a TGI [35] of 39.6 µM and a TGI [36] greater than 100 µM. It also gave a TGI [37] greater than 100 µM, a TGI [38] of 17.5 µM and a TGI [39] greater than 100 µM. The TGI [40] was greater than 100 µM, the TGI [41] was greater than 100 µM and the TGI [42] was greater than 100 µM. It also gave a TGI [43] greater than 100 µM, a TGI [44] of 42.2 µM and a TGI [45] greater than 100 µM. It also gave a TGI [46] of 77.9 µM, a TGI [47] of 19.7 µM and a TGI [48] greater than 100 µM. The TGI [49] was 31.7 µM, the TGI [50] was 51.6 µM and the TGI [51] was 40.8 µM. The TGI [52] was 31.8 µM, the TGI [53] was greater than 100 µM and the TGI [54] was greater than 100 µM. It also gave a TGI [55] of 88.1 µM.
`COc1cc(/C=C2\CCc3ccccc3C2=O)cc(OC)c1OC` gave a TGI [1] of 29.8 µM, a TGI [2] of 28.2 µM and a TGI [3] of 24.4 µM. The TGI [4] was 29.6 µM, the TGI [5] was 26.9 µM and the TGI [6] was 60.8 µM. The TGI [7] was 26.5 µM, the TGI [8] was 30.7 µM and the TGI [9] was 29.3 µM. The TGI [10] was 29.8 µM, the TGI [11] was 24.2 µM and the TGI [12] was 25.1 µM. The TGI [13] was 30.7 µM, the TGI [14] was 29 µM and the TGI [15] was 24.5 µM. The TGI [16] was 28 µM, the TGI [17] was 27.4 µM and the TGI [18] was greater than 100 µM. It also gave a TGI [19] of 28.6 µM, a TGI [20] of 40.7 µM and a TGI [21] of 27.5 µM. For the same compound, the TGI [23] was 29.2 µM, the TGI [24] was 30 µM and the TGI [25] was 36.8 µM. For the same compound, the TGI [26] was 32.9 µM, the TGI [56] was 30 µM and the TGI [28] was 45.5 µM. It also gave a TGI [29] of 32.5 µM, a TGI [57] greater than 100 µM and a TGI [30] of 28.4 µM. It also gave a TGI [31] of 29.8 µM, a TGI [32] of 34.5 µM and a TGI [33] of 74.1 µM. For the same compound, the TGI [34] was 35.6 µM, the TGI [35] was 25.3 µM and the TGI [36] was 28.3 µM. It also gave a TGI [37] of 33.6 µM, a TGI [38] of 29.7 µM and a TGI [39] of 35.5 µM. The TGI [40] was 36.4 µM, the TGI [58] was 27.9 µM and the TGI [41] was 32.2 µM. The TGI [42] was 30.8 µM, the TGI [43] was 29.2 µM and the TGI [44] was 53.6 µM. For the same compound, the TGI [45] was 30.1 µM, the TGI [46] was 38.6 µM and the TGI [47] was 75.1 µM. It also gave a TGI [48] of 31.1 µM, a TGI [49] of 29.5 µM and a TGI [50] of 31 µM. The TGI [51] was 32.1 µM, the TGI [52] was 31.3 µM and the TGI [53] was 50.1 µM. It also gave a TGI [59] of 34.3 µM, a TGI [54] of 47.8 µM and a TGI [55] of 30.3 µM.
